The results in this text go back to the METLIN SMRT retention time set (Domingo-Almenara et al. 2019).

This series is described as follows: gradient 5% acetonitrile 3 min, to 50% in 2 min, to 85% in 15 min, held 3 min, 100 µL/min. The settings on record: column: Zorbax Extend-C18 2.1 x 50 mm; eluents: water / acetonitrile, 0.1% formic acid. A digest of the protocol: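 Data were gathered over 3 months by HPLC coupled to a quadrupole time-of-flight mass spectrometer, operated in positive and negative ionization mode. Mixtures of ~100 pure standards ran on a Zorbax Extend-C18 column (2.1 × 50 mm, 1.8 μm) at 100 μL/min, with water and acetonitrile each containing 0.1% formic acid and dead and dwell volumes of 40 μL and 900 μL. Retention time was read from adduct peaks picked by computer and checked manually.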
As to `CCC(=O)N1CCN(Cc2nc3cc(NC(=O)c4cccs4)ccc3n2C)CC1`, the RP-LC retention time is 602 s.

On to `Cc1cccc(C)c1NS(=O)(=O)c1ccc(-c2c(C)noc2C)cc1`, for which the RP-LC retention time was 964 s.

As to `CN(CC1CCOC1)C(=O)Nc1ccccc1F` (stereo not given), the RP-LC retention time stood at 656 s.

Take `CCC(=O)N1CCc2c(-c3ccccc3)cccc2[C@H]1C`: the RP-LC retention time came to 1030 s.

The compound `O=C1NCCc2ccc(NC(=O)C3(c4ccc(F)cc4)CC3)cc21` yielded an RP-LC retention time of 706 s.

In turn, `N#Cc1ccc(S(=O)(=O)N2CCC(Cc3nc(-c4cccnc4)n[nH]3)C2)cc1` (stereo not given) registered an RP-LC retention time of 634 s.

Compound `COc1ccc2cc(C(=O)N3CCC(CC(=O)NCCc4c[nH]c5ccc(Cl)cc45)CC3)[nH]c2c1` yielded an RP-LC retention time of 841 s.

For the compound `CCOC(=O)c1cnc2c(-c3ccccc3OC)c(C)nn2c1N`, the RP-LC retention time was 879 s.

With `O=C(Cn1cccc1-c1nnc(C2CC2)o1)N1CCN(c2ccccc2F)CC1`, the RP-LC retention time was found to be 872 s.

Consider `Cc1ccc(Cn2nc3n(c2=O)CCCC3)cc1`, for which the RP-LC retention time was found to be 702 s.

For `COC(=O)c1ccccc1Nc1c(-c2ccc(C)cc2)nc2cnccn12`, the RP-LC retention time worked out at 875 s.

On to `COc1cccc(NC(=O)c2cn3c(n2)CCCC3)c1`, for which the RP-LC retention time came out at 598 s.

`CCN1C(=O)c2cccnc2Sc2cc(CNC(=O)Cc3ccccc3F)ccc21` returned an RP-LC retention time of 767 s.

Turning to `O=C(C1CCN(S(=O)(=O)c2ccc3[nH]c(=O)ccc3c2)CC1)N1CCOCC1`, the RP-LC retention time was 613 s.

`CCc1ccccc1NC(=O)C1CCN(S(=O)(=O)c2ccc3c(c2)NC(=O)C(C)O3)CC1` (stereo not given) had an RP-LC retention time of 838 s.

`O=C(Cn1nc2c(N3CCCCCC3)nccn2c1=O)Nc1ccccc1Cl` returned an RP-LC retention time of 708 s.

Take `CC(NC(=O)Cc1cccc(F)c1)C(=O)Nc1nc2ccccc2[nH]1` (stereo not given): the RP-LC retention time was found to be 640 s.

Consider `O=C(O)C1CCN(c2nc3ccc(-c4ccc(F)cc4)nc3s2)CC1`, for which the RP-LC retention time stood at 902 s.

For `COC(=O)c1ncn2c1C(=O)N(Cc1ccccc1C)C(C)(C(=O)NC1CCCCC1)C2` (stereo not given), the RP-LC retention time is 792 s.

Compound `CCc1nc2c(c(=O)n1CC(=O)NC(C)(C)C)CN(Cc1ccccc1)CC2` returned an RP-LC retention time of 605 s.

`CC(C)(C)NC(=O)c1ccc(-n2cc(CNC(=O)C3CCC3)cn2)cc1`: the RP-LC retention time was 710 s.

In the case of `COc1cc(Br)ccc1NC(=O)C1CCCN(c2nc3ccccc3nc2OC)C1` (stereo not given), the RP-LC retention time was 1330 s.

Regarding `O=C(CSc1nnc2ccccn12)Nc1nc(-c2ccccc2)ns1`, the RP-LC retention time came out at 695 s.

`COc1cccc(C2Cn3nnc(-c4nc(-c5ccc(OC(F)(F)F)cc5)no4)c3CO2)c1` (stereo not given) displayed an RP-LC retention time of 1310 s.

`CC(CCc1ccccc1)NC(=O)Cn1c(=O)n(C(C)C)c2ccc(S(=O)(=O)N3CCCC3)cc21` (stereo not given): the RP-LC retention time was 932 s.

`O=C(NCC(O)c1ccc(C(F)(F)F)cc1)C1(c2ccccc2)CCOCC1` (stereo not given) yielded an RP-LC retention time of 785 s.

`CCc1nc(-c2csc(S(=O)(=O)N3CCCC(C(=O)Nc4ccc(F)c(F)c4)C3)c2)no1` (stereo not given): the RP-LC retention time turned out to be 1090 s.

`O=C(c1cn(Cc2ccccc2)cc2c(=O)n(-c3ccccc3)nc1-2)N1CCc2ccccc21`: the RP-LC retention time turned out to be 916 s.

`CCOCCCNC(=O)c1cn(C)nc1S(=O)(=O)N1CCN(c2ccccc2OCC)CC1`: the RP-LC retention time was determined as 923 s.

In turn, `CCOc1ccccc1C1NC(=O)N(CC(=O)N2CCN(c3ccc(F)cc3)CC2)C2=C1C(=O)OC2` (stereo not given) displayed an RP-LC retention time of 830 s.

In turn, `CCCCN1C(=O)C(CC(=O)N2CCCC2)Sc2ncccc21` (stereo not given) showed an RP-LC retention time of 755 s.

With `COc1ccc(-c2cc(C(F)F)nn2-c2ccc(S(N)(=O)=O)cc2)cc1F`, the RP-LC retention time is 997 s.

Regarding `Cc1cc(C)c(S(=O)(=O)N2CCC3(CC2)NCCN=C3NCc2ccccc2C)c(C)c1`, the RP-LC retention time came to 854 s.

`COCCN(CC(=O)N1CCc2sccc2C1COc1ccccc1OC)C(=O)C(C)C` (stereo not given): the RP-LC retention time was determined as 845 s.

In the case of `O=C(CSc1ccncc1)Nc1ccc(OCc2nnc(-c3ccccc3)o2)cc1`, the RP-LC retention time came to 884 s.

As to `O=C(CSc1ncnc2c1cnn2-c1ccc(Cl)cc1)NCc1ccco1`, the RP-LC retention time turned out to be 954 s.

The compound `Cn1c(=O)c2cc(C(=O)NCc3ccccc3C(F)(F)F)nn2c2ccccc21` displayed an RP-LC retention time of 940 s.

With `COc1ccc(-c2cn3c(CC(=O)Nc4ccc(F)c(Cl)c4)csc3n2)cc1`, the RP-LC retention time was 832 s.

The compound `COc1ccc(OC)c(NC(=O)N2CCC3(CC2)N=C(c2cccc(F)c2)C(=O)N3)c1` gave an RP-LC retention time of 856 s.

For the compound `O=C(C(=O)N1CCN(c2ccc(F)cc2)CC1)c1ccc[nH]1`, the RP-LC retention time stood at 753 s.

Compound `CCCCc1ccc(NC(=O)Cn2nc3cc(C)nc(-c4ccc(OC)cc4)n3c2=O)cc1` returned an RP-LC retention time of 1040 s.

Regarding `COc1cccc(S(=O)(=O)N2CCC(CN3CCCC(C)C3)CC2)c1` (stereo not given), the RP-LC retention time came to 662 s.

Compound `CCOC(=O)c1ccc(NC(=O)Cc2csc3nc(-c4ccc(OC)c(OC)c4)cn23)cc1` registered an RP-LC retention time of 756 s.

On to `O=C(CSc1nnnn1-c1cccc(C(F)(F)F)c1)N1CCOCC1`, for which the RP-LC retention time came to 733 s.

For the compound `COc1ccc(-c2csc(NC(=O)c3cc(OC)c(OC)c(OC)c3)n2)cc1`, the RP-LC retention time worked out at 1030 s.

For `Cc1ccc(C)c(NC(=O)N2C[C@@H](F)C[C@H]2C(=O)N2CCc3ccccc3C2)c1`, the RP-LC retention time is 836 s.

On to `Cc1c(S(=O)(=O)NCc2ccco2)c(C)n(C)c1-c1nnc(C2CCC2)o1`, for which the RP-LC retention time was found to be 853 s.

`COc1ccc(CCC(=O)NCC(=O)Nc2nc3ccccc3[nH]2)cc1` had an RP-LC retention time of 639 s.

In turn, `COC(=O)c1cccc(NC(=O)CSc2nccc(N3CCN(c4cccc(OC)c4)CC3)n2)c1` had an RP-LC retention time of 743 s.

As to `CCCN1CCCCc2cc(C(=O)NC(C)COC)sc21` (stereo not given), the RP-LC retention time turned out to be 907 s.

For the compound `COc1ccc(NC(=O)c2ccc(-c3cncnc3)nc2)cc1`, the RP-LC retention time is 687 s.

On to `COc1ccc(-c2ncc3c(n2)CCN(S(=O)(=O)c2ccc(C)cc2)C3)cc1`, for which the RP-LC retention time is 1050 s.

On to `O=C(CSc1nnc2c3sc(N4CCCC4)nc3ncn12)Nc1ccc(Cl)cc1`, for which the RP-LC retention time turned out to be 855 s.

Regarding `CCCNC(=O)N1CCCN(C)c2ccccc21`, the RP-LC retention time is 613 s.

In the case of `COc1cccc(-c2noc(NC3CC3)n2)c1OC`, the RP-LC retention time is 752 s.

In turn, `CCNC(=O)CCCN1C(=O)CCn2nc(-c3cn(C)c4ccccc34)cc21` gave an RP-LC retention time of 695 s.

Consider `Cc1cccc(CNC(=O)c2csc(C(=O)NC3CC3)n2)c1`, for which the RP-LC retention time is 824 s.

Regarding `CCOC(=O)CNC(=O)CN(C(=O)N1CCN(C)CC1)S(=O)(=O)c1ccc(C)cc1`, the RP-LC retention time was determined as 556 s.

`Cc1cc(C)cc(NC(=O)C2CCN(c3cncnc3N3CCOCC3)CC2)c1` yielded an RP-LC retention time of 657 s.

Consider `Cc1cnc(C(=O)NCC2Cn3cccc3C(=O)N2CC(C)C)cn1` (stereo not given), for which the RP-LC retention time was 706 s.

`Cc1nnsc1C(=O)NCC(F)(F)F`: the RP-LC retention time came out at 649 s.

As to `Cc1cccc(Sc2nccnc2N2CCC(C(=O)NCCC(C)C)CC2)c1`, the RP-LC retention time stood at 1100 s.

Compound `O=C(c1ccoc1)N1CCC(Oc2nccnc2N2CCc3ccccc32)C1` (stereo not given) returned an RP-LC retention time of 880 s.

For the compound `O=C1C2N=NN(Cc3nc(-c4ccc5c(c4)OCO5)no3)C2C(=O)N1c1ccc2c(c1)OCO2` (stereo not given), the RP-LC retention time worked out at 899 s.

`CCOc1nccnc1N1CCC(NC(=O)Cc2cccs2)C1` (stereo not given) returned an RP-LC retention time of 921 s.

In turn, `COc1cccc(-c2noc(C3CCCN3C(=O)Nc3cccc(C)c3C)n2)c1` (stereo not given) yielded an RP-LC retention time of 925 s.

Compound `CCOc1ccc(S(=O)(=O)N2CCCC(C(=O)Nc3ccc(OC)cc3OC)C2)cc1C` (stereo not given) showed an RP-LC retention time of 1070 s.

Take `Cn1cc(C2=CCN(S(=O)(=O)c3cccc4nsnc34)CC2)c2cccnc21`: the RP-LC retention time was determined as 893 s.

Turning to `CCN(CC)CCNC(=O)Cc1noc2ccc(C)cc12`, the RP-LC retention time was 604 s.

In the case of `CCc1ccc(S(=O)(=O)c2cnc(N3CCN(c4ccc(OC)cc4)CC3)nc2N)cc1`, the RP-LC retention time amounted to 996 s.

As for `CC(C)CC(NC(=O)C1CCC(C)CC1)C(=O)N1CCN(c2ccccn2)CC1` (stereo not given), the RP-LC retention time amounted to 693 s.

The compound `O=C(NCCN1CCOCC1)c1cc2n(n1)CCCN(Cc1ccc(Cl)cc1)C2=O` showed an RP-LC retention time of 629 s.

The compound `CCCNc1cc(N2CCC(CCC(=O)NCCN3CCc4ccccc4C3)CC2)ncn1` registered an RP-LC retention time of 574 s.

As for `COc1ccc(C2(C(=O)Nc3cc(-c4cccs4)no3)CC2)cc1`, the RP-LC retention time is 1060 s.

Consider `CN1C(=O)c2cc(C(=O)N3CCC(C(N)=O)CC3)nn2CC1(C)C(=O)NC1CCCC1` (stereo not given), for which the RP-LC retention time was 888 s.

For `CCOc1ccccc1CNc1nc2ccncc2n(CC)c1=O`, the RP-LC retention time was 683 s.

Compound `O=C(c1cn(-c2cc(N3CCCCC3)ncn2)cn1)N1CCN(c2ccccn2)CC1` returned an RP-LC retention time of 636 s.

In the case of `COc1ccc2c(c1)OC1(C)CC2C(S(=O)(=O)c2ccc(C(C)C)cc2)C(=O)N1C` (stereo not given), the RP-LC retention time was found to be 1120 s.

`CC(NC(=O)Nc1ccccc1C(F)(F)F)C(=O)N1CCc2ccccc21` (stereo not given) showed an RP-LC retention time of 907 s.

`CCCc1ccc(S(=O)(=O)N2C[C@@H]3C(=O)N(C(CC)c4cccs4)C(=O)[C@@H]3C2)cc1` (stereo not given in full): the RP-LC retention time is 1160 s.
